# According to ChEMBL document CHEMBL5724914, “Linking interpersonal differences in gut microbiota composition and drug biotransformation activity” (2024):
# Assay: (§1) The drug is tested on Z-019 corresponding to rat gut metagenome with ENA study accession number: PRJEB37062 and ENA sample accession number: ERS12561818 for biotransformation under anaerobic condition. The drug concentrations were measured over 9 timepoints collected between 0 and 24 hours of incubation by liquid-chromatography-coupled mass spectrometry (LC–MS)
# Details: 2 µM
# Also: call rule not given here.
row,Structure (SMILES),Bacterial Biotransformation
1,CCN1CCCC1CNC(=O)c1cc(S(N)(=O)=O)ccc1OC (stereo not given) [SULPIRIDE],Compound NOT metabolized
2,CC(=O)CC(c1ccccc1)c1c(O)c2ccccc2oc1=O (stereo not given) [WARFARIN],Compound NOT metabolized

# Assay: as §1, with “on Z-017” for “on Z-019”, “to mouse” for “to rat”, “number: ERS12561816” for “number: ERS12561818”
# Details: 2 µM
row,Structure (SMILES),Bacterial Biotransformation
1,CCN1CCCC1CNC(=O)c1cc(S(N)(=O)=O)ccc1OC (stereo not given) [SULPIRIDE],Compound NOT metabolized
2,CC(=O)CC(c1ccccc1)c1c(O)c2ccccc2oc1=O (stereo not given) [WARFARIN],Compound NOT metabolized

# Assay: as §1, with “on Z-016” for “on Z-019”, “to mouse” for “to rat”, “number: ERS12561815” for “number: ERS12561818”
# Details: 2 µM
row,Structure (SMILES),Bacterial Biotransformation
1,CCN1CCCC1CNC(=O)c1cc(S(N)(=O)=O)ccc1OC (stereo not given) [SULPIRIDE],Compound NOT metabolized
2,CC(=O)CC(c1ccccc1)c1c(O)c2ccccc2oc1=O (stereo not given) [WARFARIN],Compound metabolized

# Assay: as §1, with “Z-014” for “Z-019”, “ERS12561814” for “ERS12561818”
# Details: 2 µM
row,Structure (SMILES),Bacterial Biotransformation
1,CCN1CCCC1CNC(=O)c1cc(S(N)(=O)=O)ccc1OC (stereo not given) [SULPIRIDE],Compound NOT metabolized
2,CC(=O)CC(c1ccccc1)c1c(O)c2ccccc2oc1=O (stereo not given) [WARFARIN],Compound metabolized

# Assay: as §1, with “on Z-013” for “on Z-019”, “to rabbit” for “to rat”, “number: ERS12561813” for “number: ERS12561818”
# Details: 2 µM
row,Structure (SMILES),Bacterial Biotransformation
1,CCN1CCCC1CNC(=O)c1cc(S(N)(=O)=O)ccc1OC (stereo not given) [SULPIRIDE],Compound NOT metabolized
2,CC(=O)CC(c1ccccc1)c1c(O)c2ccccc2oc1=O (stereo not given) [WARFARIN],Compound metabolized

# Assay: as §1, with “Z-008” for “Z-019”, “to” for “to rat gut”, “ERS12561808” for “ERS12561818”
# Details: 2 µM
row,Structure (SMILES),Bacterial Biotransformation
1,CCN1CCCC1CNC(=O)c1cc(S(N)(=O)=O)ccc1OC (stereo not given) [SULPIRIDE],Compound NOT metabolized
2,CC(=O)CC(c1ccccc1)c1c(O)c2ccccc2oc1=O (stereo not given) [WARFARIN],Compound NOT metabolized

# Assay: as §1, with “on WLS-310” for “on Z-019”, “to human” for “to rat”, “number: ERS12561785” for “number: ERS12561818”
# Details: 2 µM
row,Structure (SMILES),Bacterial Biotransformation
1,CCN1CCCC1CNC(=O)c1cc(S(N)(=O)=O)ccc1OC (stereo not given) [SULPIRIDE],Compound metabolized
2,CC(=O)CC(c1ccccc1)c1c(O)c2ccccc2oc1=O (stereo not given) [WARFARIN],Compound metabolized

# Assay: as §1, with “on WLS-220” for “on Z-019”, “to human” for “to rat”, “number: ERS12561769” for “number: ERS12561818”
# Details: 2 µM
row,Structure (SMILES),Bacterial Biotransformation
1,CCN1CCCC1CNC(=O)c1cc(S(N)(=O)=O)ccc1OC (stereo not given) [SULPIRIDE],Compound NOT metabolized
2,CC(=O)CC(c1ccccc1)c1c(O)c2ccccc2oc1=O (stereo not given) [WARFARIN],Compound metabolized

# Assay: as §1, with “on WLS-086” for “on Z-019”, “to human” for “to rat”, “number: ERS12561752” for “number: ERS12561818”
# Details: 2 µM
row,Structure (SMILES),Bacterial Biotransformation
1,CCN1CCCC1CNC(=O)c1cc(S(N)(=O)=O)ccc1OC (stereo not given) [SULPIRIDE],Compound metabolized
2,CC(=O)CC(c1ccccc1)c1c(O)c2ccccc2oc1=O (stereo not given) [WARFARIN],Compound metabolized

# Assay: as §1, with “on WLS-073” for “on Z-019”, “to human” for “to rat”, “number: ERS12561749” for “number: ERS12561818”
# Details: 2 µM
row,Structure (SMILES),Bacterial Biotransformation
1,CCN1CCCC1CNC(=O)c1cc(S(N)(=O)=O)ccc1OC (stereo not given) [SULPIRIDE],Compound NOT metabolized
2,CC(=O)CC(c1ccccc1)c1c(O)c2ccccc2oc1=O (stereo not given) [WARFARIN],Compound NOT metabolized

# Assay: as §1, with “on WLS-038” for “on Z-019”, “to human” for “to rat”, “number: ERS12561745” for “number: ERS12561818”
# Details: 2 µM
row,Structure (SMILES),Bacterial Biotransformation
1,CCN1CCCC1CNC(=O)c1cc(S(N)(=O)=O)ccc1OC (stereo not given) [SULPIRIDE],Compound NOT metabolized
2,CC(=O)CC(c1ccccc1)c1c(O)c2ccccc2oc1=O (stereo not given) [WARFARIN],Compound NOT metabolized

# Assay: as §1, with “on WLS-007” for “on Z-019”, “to human” for “to rat”, “number: ERS12561742” for “number: ERS12561818”
# Details: 2 µM
row,Structure (SMILES),Bacterial Biotransformation
1,CCN1CCCC1CNC(=O)c1cc(S(N)(=O)=O)ccc1OC (stereo not given) [SULPIRIDE],Compound NOT metabolized
2,CC(=O)CC(c1ccccc1)c1c(O)c2ccccc2oc1=O (stereo not given) [WARFARIN],Compound metabolized

# Details: human gut metagenome, 24 h, 2 µM
row,Structure (SMILES),Bacterial Biotransformation
1,CCN1CCCC1CNC(=O)c1cc(S(N)(=O)=O)ccc1OC (stereo not given) [SULPIRIDE],Compound NOT metabolized
2,CC(=O)CC(c1ccccc1)c1c(O)c2ccccc2oc1=O (stereo not given) [WARFARIN],Compound metabolized

# Details: human gut metagenome, 24 h, 2 µM
# Remark: another data set of the same source
row,Structure (SMILES),Bacterial Biotransformation
1,CCN1CCCC1CNC(=O)c1cc(S(N)(=O)=O)ccc1OC (stereo not given) [SULPIRIDE],Compound NOT metabolized
2,CC(=O)CC(c1ccccc1)c1c(O)c2ccccc2oc1=O (stereo not given) [WARFARIN],Compound metabolized

# Details: human gut metagenome, 24 h, 2 µM
# Remark: another data set of the same source
row,Structure (SMILES),Bacterial Biotransformation
1,CCN1CCCC1CNC(=O)c1cc(S(N)(=O)=O)ccc1OC (stereo not given) [SULPIRIDE],Compound NOT metabolized
2,CC(=O)CC(c1ccccc1)c1c(O)c2ccccc2oc1=O (stereo not given) [WARFARIN],Compound metabolized

# Details: human gut metagenome, 24 h, 2 µM
# Remark: another data set of the same source
row,Structure (SMILES),Bacterial Biotransformation
1,CCN1CCCC1CNC(=O)c1cc(S(N)(=O)=O)ccc1OC (stereo not given) [SULPIRIDE],Compound NOT metabolized
2,CC(=O)CC(c1ccccc1)c1c(O)c2ccccc2oc1=O (stereo not given) [WARFARIN],Compound metabolized

# Details: human gut metagenome, 24 h, 2 µM
# Remark: another data set of the same source
row,Structure (SMILES),Bacterial Biotransformation
1,CCN1CCCC1CNC(=O)c1cc(S(N)(=O)=O)ccc1OC (stereo not given) [SULPIRIDE],Compound NOT metabolized
2,CC(=O)CC(c1ccccc1)c1c(O)c2ccccc2oc1=O (stereo not given) [WARFARIN],Compound metabolized

# Details: human gut metagenome, 24 h, 2 µM
# Remark: another data set of the same source
row,Structure (SMILES),Bacterial Biotransformation
1,CCN1CCCC1CNC(=O)c1cc(S(N)(=O)=O)ccc1OC (stereo not given) [SULPIRIDE],Compound NOT metabolized
2,CC(=O)CC(c1ccccc1)c1c(O)c2ccccc2oc1=O (stereo not given) [WARFARIN],Compound metabolized

# Details: human gut metagenome, 24 h, 2 µM
# Remark: another data set of the same source
row,Structure (SMILES),Bacterial Biotransformation
1,CCN1CCCC1CNC(=O)c1cc(S(N)(=O)=O)ccc1OC (stereo not given) [SULPIRIDE],Compound metabolized
2,CC(=O)CC(c1ccccc1)c1c(O)c2ccccc2oc1=O (stereo not given) [WARFARIN],Compound metabolized

# Details: human gut metagenome, 24 h, 2 µM
# Remark: another data set of the same source
row,Structure (SMILES),Bacterial Biotransformation
1,CCN1CCCC1CNC(=O)c1cc(S(N)(=O)=O)ccc1OC (stereo not given) [SULPIRIDE],Compound metabolized
2,CC(=O)CC(c1ccccc1)c1c(O)c2ccccc2oc1=O (stereo not given) [WARFARIN],Compound metabolized
